≈ marks a conversion by molar mass, not a printed value. Where two headings read alike, the source gives them in different places. Starred links: 1 amine or outer side, 2 acyl side, 3 side chain; linkers in the order of their positions; H or OH if unused. Positions of bridges follow the written chain, without caps; N, C: chain ends. Non-standard residues stand in square brackets, D forms with d. Residues, ends and D or L forms follow the SMILES beside them. Groups on a side chain read outwards from the residue. *: point of attachment. X2 = O=C(O)CCCCCCCCCCCCCCCCC(=O)N[C@@H](CCC(=O)NCOCCOCC(=O)NCOCCOCC(=O)*)C(=O)O; γGlu = O=C(O)[C@H](CCC(=O)[*:2])N[*:1]; Palmitoyl = CCCCCCCCCCCCCCCC(=O)*; AEEA = NCCOCCOCC(=O)O
Assays:
[1] = Acute food intake inhibition after SC bolus injection (BioDAQ); conditions: Long Evans rats on 45% high fat diet
[2] = target: T1, human calcitonin receptor (hCTR) (Homo sapiens, UniProt P30988); assay: cAMP accumulation functional assay in HEK293-CNG cells expressing hCTR; type: cell-based
T1 sequence (P30988 25-474): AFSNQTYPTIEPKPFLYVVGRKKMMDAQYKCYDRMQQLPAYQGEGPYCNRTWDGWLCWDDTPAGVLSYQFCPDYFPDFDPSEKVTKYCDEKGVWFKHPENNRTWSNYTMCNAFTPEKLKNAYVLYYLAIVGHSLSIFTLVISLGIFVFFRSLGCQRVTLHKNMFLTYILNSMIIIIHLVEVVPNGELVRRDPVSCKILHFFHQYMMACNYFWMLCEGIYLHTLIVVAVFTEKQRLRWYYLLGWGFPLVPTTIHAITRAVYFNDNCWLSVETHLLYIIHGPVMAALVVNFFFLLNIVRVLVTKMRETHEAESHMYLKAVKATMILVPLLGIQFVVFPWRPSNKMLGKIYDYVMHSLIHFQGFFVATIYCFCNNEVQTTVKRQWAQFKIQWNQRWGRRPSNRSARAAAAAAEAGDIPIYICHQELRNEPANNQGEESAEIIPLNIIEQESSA
Method: (§1) In the presence of the non-specific cAMP/cGMP phosphodiesterase inhibitor 3-isobutyl-1-methylxanthine (IBMX), accumulating cAMP can be measured in vitro using common detection methods. Thus, it is possible to estimate an in vitro potency (pEC50) for peptides activating each of these receptors using fit dose-response curves for cAMP accumulation.
(§2) Cells were carried in growth media for no more than 10 passages prior to testing.
(§3) Peptides were serially diluted in the same buffer as above for each given assay condition. Two assay control solutions consisting of 50 mcM forskolin (cAMP system maximum) or assay buffer only (cAMP system minimum) were also prepared in the appropriate stimulation buffers. Five microliters of each peptide-concentration, or assay control was added to triplicate wells and incubated for thirty minutes at room temperature. During this incubation step a 4× europium labelled cAMP tracer solution and a 4× Ulight®-anti-cAMP solution (consisting of an anti-cAMP monoclonal antibody labelled with Ulight™ dye) was prepared according to the manufacturer's protocol (PerkinElmer LANCE Ultra cAMP kit). Following this incubation, 5 mcL europium labelled cAMP and 5 mcL Ulight anti-cAMP antibody was added to wells. The plate was covered with an adhesive cover to prevent evaporation and incubated for 60 minutes at room temperature in the dark. Plates were read on an Envision fluorescent plate reader (PerkinElmer).
(§4) Test values were first normalized to the forskolin induced cAMP system maximum and system minimum averaged values in Excel using the formula: (test value−system minavg)/(system maxavg−system minavg)*100. Normalized test values represent a baseline corrected percentage of the system maximum cAMP response induced by forskolin. Normalized data was analyzed from triplicate tests and used to estimate the EC50 for each peptide on each receptor. Data was fit in GraphPad Prism software (v7.04) using a 4-parameter logistic curve model: Y=Bottom+(Top−Bottom)/(1+10^((Log EC50−X))). The Hill slope was constrained to 1.0. EC50 values were converted to pEC50 values using the formula: pEC50=−Log (EC50).

in vivo = assay: in vivo; design: species or system Sprague-Dawley rats; conditions: rat, iv, 0.033 mg/kg
In short: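 Male Sprague-Dawley rats, non-fasted (n=3), given peptide in saline as 1-h IV or SC infusion at 0.033 mg/kg, or SC bolus at 0.3 mg/kg; jugular blood to 48 h into K2EDTA plus protease inhibitors. Plasma extracted by precipitation or WCX solid-phase extraction, quantified by UPLC-MS/MS against standards in matching rat plasma.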

[3] = target: human amylin 3 receptor (hAMY3R) (Homo sapiens, UniProt O60896+P30988); assay: cAMP accumulation functional assay in HEK293-CNG cells expressing hAMY3R; type: cell-based
Method: as §1, §2, §3, §4

[4] = Solubility of amylin analog polypeptides (visual inspection, room temperature); type: physicochemical
Method: The analog polypeptides described herein were tested for solubility in saline 20% DMSO in water (i.e., bioassay buffer) or in aqueous (DI water) at room temperature. Samples were visually inspected for clarity of the sample, any appearance of turbidity or haziness.

human amylin 3 receptor (hAMY3R), sequence (O60896 24-148, one chain of several): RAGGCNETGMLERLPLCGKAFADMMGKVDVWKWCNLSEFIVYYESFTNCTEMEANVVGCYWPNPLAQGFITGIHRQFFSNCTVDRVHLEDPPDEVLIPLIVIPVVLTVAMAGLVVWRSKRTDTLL

Question: For `CCCCCCCCCCCCCCCC(=O)N[C@@H](CCC(=O)N[C@@H](CCC(=O)N[C@@H](CCC(=O)N[C@@H](CCC(=O)NCCOCCOCC(=O)NCCOCCOCC(=O)N[C@@H](CCC(=O)NCCCC[C@H](NC(=O)[C@H](CCC(=O)O)NC(=O)[C@H](CC(N)=O)NC(=O)[C@H](C)NC(=O)[C@H](CC(C)C)NC(=O)[C@H](CCCNC(=N)N)NC(=O)[C@H](CCC(N)=O)NC(=O)[C@@H](NC(=O)[C@H](C)NC(=O)[C@@H]1CSSC[C@H](NC(=O)[C@@H](N)CO)C(=O)N[C@@H](CC(N)=O)C(=O)N[C@@H]([C@@H](C)O)C(=O)N[C@@H](CO)C(=O)N[C@@H]([C@@H](C)O)C(=O)N1)[C@@H](C)O)C(=O)N[C@@H](Cc1c[nH]cn1)C(=O)N[C@@H](CCCCN)C(=O)N[C@@H](CO)C(=O)N[C@@H](CO)C(=O)N[C@@H](CC(N)=O)C(=O)N[C@@H](CC(N)=O)C(=O)N[C@@H](Cc1ccccc1)C(=O)NCC(=O)N1CCC[C@H]1C(=O)N[C@H](C(=O)N[C@@H](CC(C)C)C(=O)N1CCC[C@H]1C(=O)N1CCC[C@H]1C(=O)N[C@H](C(=O)N[C@@H](CCCCN)C(=O)N[C@H](C(=O)NCC(=O)N[C@@H](CO)C(=O)N[C@@H](CCC(=O)O)C(=O)N[C@H](C(=O)N[C@@H](Cc1ccc(O)cc1)C(N)=O)[C@@H](C)O)C(C)C)[C@@H](C)O)[C@@H](C)CC)C(=O)O)C(=O)O)C(=O)O)C(=O)O)C(=O)O` [Compound A5] (H-SCNTSTCATQRLANEK([γGlu-AEEA-AEEA-γGlu-γGlu-γGlu-γGlu-Palmitoyl])HKSSNNFGPILPPTKVGSETY-NH2; disulfide 2-7; N-terminus assumed), which “Acute Food Intake % Inhibition vs vehicle” value ([1]; 0-24 hr after acute SC dosing) is on record?
Answer: 37%

Question: And the EC50 ([2]; hCTR 0% HSA, 0% HSA, read-out: pEC50 hCTR 0% HSA (converted))?
Answer: 0.0158 nM

Question: What about the EC50 ([2]; hCTR 0.1% HSA, 0.1% HSA) of the same compound?
Answer: 0.316 nM

Question: And the EC50 ([2]; hCTR 4% HSA, 4% HSA, read-out: pEC50 hCTR 4% HSA (converted))?
Answer: 15.8 nM

Question: What about the Vd (in vivo) of the same compound?
Answer: 0.137 L/kg

Question: What about the clearance (in vivo) of the same compound?
Answer: 0.135 mL/min/kg

Question: And the half-life (in vivo)?
Answer: 15 h

Question: And the EC50 ([3]; 4% HSA, read-out: pEC50 hAMY3R 4% HSA (converted))?
Answer: 0.631 nM

Question: What about the EC50 ([3]; pEC50 hAMY3R 0.1% HSA, 0.1% HSA) of the same compound?
Answer: 0.0158 nM

Question: With `CCCCCCCCCCCCCCCC(=O)N[C@@H](CCC(=O)N[C@@H](CCC(=O)N[C@@H](CCC(=O)N[C@@H](CCC(=O)NCCCC[C@@H](NC(=O)[C@H](CCC(=O)O)NC(=O)[C@H](CC(N)=O)NC(=O)[C@H](C)NC(=O)[C@H](CC(C)C)NC(=O)[C@H](CCCNC(=N)N)NC(=O)[C@H](CCC(N)=O)NC(=O)[C@@H](NC(=O)[C@H](C)NC(=O)[C@@H]1CSSC[C@H](NC(=O)[C@@H](N)CO)C(=O)N[C@@H](CC(N)=O)C(=O)N[C@@H]([C@@H](C)O)C(=O)N[C@@H](CO)C(=O)N[C@@H]([C@@H](C)O)C(=O)N1)[C@@H](C)O)C(=O)N[C@@H](Cc1c[nH]cn1)C(=O)N[C@@H](CCCCN)C(=O)N[C@@H](CO)C(=O)N[C@@H](CO)C(=O)N[C@@H](CC(N)=O)C(=O)N[C@@H](CC(N)=O)C(=O)N[C@@H](Cc1ccccc1)C(=O)NCC(=O)N1CCC[C@H]1C(=O)N[C@H](C(=O)N[C@@H](CC(C)C)C(=O)N1CCC[C@H]1C(=O)N1CCC[C@H]1C(=O)N[C@H](C(=O)N[C@@H](CCCCN)C(=O)N[C@H](C(=O)NCC(=O)N[C@@H](CO)C(=O)N[C@@H](CCC(=O)O)C(=O)N[C@H](C(=O)N[C@@H](Cc1ccc(O)cc1)C(N)=O)[C@@H](C)O)C(C)C)[C@@H](C)O)[C@@H](C)CC)C(=O)O)C(=O)O)C(=O)O)C(=O)O` [Compound A66] (H-SCNTSTCATQRLANE[dK]([γGlu-γGlu-γGlu-γGlu-Palmitoyl])HKSSNNFGPILPPTKVGSETY-NH2; disulfide 2-7) as the compound, how does the Vd (in vivo) read?
Answer: 0.194 L/kg

Question: And the clearance (in vivo)?
Answer: 0.259 mL/min/kg

Question: And the half-life (in vivo)?
Answer: 9.59 h

Question: What about the solubility ([4]; Solubility) of the same compound?
Answer: 78.3 mg/mL (≈ 16.5 mM)

Question: For `CCCCCCCCCCCCCCCC(=O)N[C@@H](CCC(=O)N[C@@H](CCC(=O)N[C@@H](CCC(=O)NCCCC[C@@H](NC(=O)[C@H](CCC(=O)O)NC(=O)[C@H](CC(N)=O)NC(=O)[C@H](C)NC(=O)[C@H](CC(C)C)NC(=O)[C@H](CCCNC(=N)N)NC(=O)[C@H](CCC(N)=O)NC(=O)[C@@H](NC(=O)[C@H](C)NC(=O)[C@@H]1CSSC[C@H](NC(=O)[C@@H](N)CO)C(=O)N[C@@H](CC(N)=O)C(=O)N[C@@H]([C@@H](C)O)C(=O)N[C@@H](CO)C(=O)N[C@@H]([C@@H](C)O)C(=O)N1)[C@@H](C)O)C(=O)N[C@@H](Cc1c[nH]cn1)C(=O)N[C@@H](CCCCN)C(=O)N[C@@H](CO)C(=O)N[C@@H](CO)C(=O)N[C@@H](CC(N)=O)C(=O)N[C@@H](CC(N)=O)C(=O)N[C@@H](Cc1ccccc1)C(=O)NCC(=O)N1CCC[C@H]1C(=O)N[C@H](C(=O)N[C@@H](CC(C)C)C(=O)N1CCC[C@H]1C(=O)N1CCC[C@H]1C(=O)N[C@H](C(=O)N[C@@H](CCCCN)C(=O)N[C@H](C(=O)NCC(=O)N[C@@H](CO)C(=O)N[C@@H](CC(N)=O)C(=O)N[C@H](C(=O)N[C@@H](Cc1ccc(O)cc1)C(N)=O)[C@@H](C)O)C(C)C)[C@@H](C)O)[C@@H](C)CC)C(=O)O)C(=O)O)C(=O)O` [Compound A67] (H-SCNTSTCATQRLANE[dK]([γGlu-γGlu-γGlu-Palmitoyl])HKSSNNFGPILPPTKVGSNTY-NH2; disulfide 2-7), which Vd (in vivo) is on record?
Answer: 0.198 L/kg

Question: And the clearance (in vivo)?
Answer: 0.357 mL/min/kg

Question: What about the half-life (in vivo) of the same compound?
Answer: 7.14 h

Question: And the solubility ([4]; TFA salt, DI H2O, room temperature, read-out: Solubility)?
Answer: 70.6 mg/mL

Question: What does the source list for `CC[C@H](C)[C@H](NC(=O)[C@@H]1CCCN1C(=O)CNC(=O)[C@H](Cc1ccccc1)NC(=O)[C@H](CC(N)=O)NC(=O)[C@H](CC(N)=O)NC(=O)[C@H](CO)NC(=O)[C@H](CO)NC(=O)[C@H](CCCCN)NC(=O)[C@H](Cc1c[nH]cn1)NC(=O)[C@H](CC(C)C)NC(=O)[C@H](CCCCNC(=O)COCCOCNC(=O)COCCOCNC(=O)CC[C@H](NC(=O)CCCCCCCCCCCCCCCCC(=O)O)C(=O)O)NC(=O)[C@H](CC(N)=O)NC(=O)[C@H](C)NC(=O)[C@H](CC(C)C)NC(=O)[C@H](CCCNC(=N)N)NC(=O)[C@H](CCC(N)=O)NC(=O)[C@@H](NC(=O)[C@H](C)NC(=O)[C@@H]1CSSC[C@H](NC(=O)[C@@H](N)CO)C(=O)N[C@@H](CC(N)=O)C(=O)N[C@@H]([C@@H](C)O)C(=O)N[C@@H](CO)C(=O)N[C@@H]([C@@H](C)O)C(=O)N1)[C@@H](C)O)C(=O)N[C@@H](CC(C)C)C(=O)N1CCC[C@H]1C(=O)N1CCC[C@H]1C(=O)N[C@H](C(=O)N[C@@H](CCCCN)C(=O)N[C@H](C(=O)NCC(=O)N[C@@H](CO)C(=O)N[C@@H](CCC(=O)O)C(=O)N[C@H](C(=O)N[C@@H](Cc1ccc(O)cc1)C(N)=O)[C@@H](C)O)C(C)C)[C@@H](C)O` [Compound A98] (H-SCNTSTCATQRLANK(X2)LHKSSNNFGPILPPTKVGSETY-NH2; disulfide 2-7; N-terminus assumed)?
Answer: Acute Food Intake % Inhibition vs vehicle ([1]; 0-24 hr after acute SC dosing): 23%; Acute Food Intake % Inhibition vs vehicle ([1]; 25-48 hr after acute SC dosing): 24%; Vd (in vivo): 0.159 L/kg; clearance (in vivo): 0.119 mL/min/kg; half-life (in vivo): 17.4 h
